From patent publication US20230203029A1 (priority 2020, published 2023)
Like-named read-outs stand apart in the source and are kept apart here.

Legend:
[1] = target: T1, human MERTK cytoplasmic domain (Homo sapiens, UniProt Q12866); experiment: biochemical; details: 30 uM ATP; read-out: Assay 1a Mer IC50 30 uM ATP
T1 construct: human MERTK cytoplasmic domain (Carna Biosciences 08-108); purchased Carna Biosciences 08-108
Protocol: Assay 1a—MERTK HTRF KinEASE-TK Assay
The enzymatic reaction was carried out for 30 min at room temperature. 10 μL TK Antibody-Cryptate/Streptavidin-XL665 (Cisbio 610SAXLG) was then added for 60 min, including EDTA containing detection buffer (Cisbio 62SDBRDF) to stop the reaction.

[2] = target: T2, human AXL cytoplasmic domain (Homo sapiens, UniProt P30530); experiment: Assay 1b AXL HTRF KinEASE-TK assay; format: biochemical
T2 construct: human AXL cytoplasmic domain (Thermo Fisher A31515); purchased Thermo Fisher A31515
T2 sequence (P30530 473-894 limits assumed): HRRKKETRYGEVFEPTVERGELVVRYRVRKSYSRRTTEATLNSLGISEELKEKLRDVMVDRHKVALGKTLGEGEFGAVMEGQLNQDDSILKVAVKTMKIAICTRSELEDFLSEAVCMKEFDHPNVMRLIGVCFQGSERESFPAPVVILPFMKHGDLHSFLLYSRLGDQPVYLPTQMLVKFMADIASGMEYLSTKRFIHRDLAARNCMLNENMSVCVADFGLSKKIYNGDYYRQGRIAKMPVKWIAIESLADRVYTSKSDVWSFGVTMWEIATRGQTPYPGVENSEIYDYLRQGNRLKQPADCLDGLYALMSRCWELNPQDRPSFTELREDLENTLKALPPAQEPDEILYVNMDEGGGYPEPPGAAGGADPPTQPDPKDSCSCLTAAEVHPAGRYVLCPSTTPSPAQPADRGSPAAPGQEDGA
Outline: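 Recombinant cytoplasmic domain (5 nM) in kinase buffer with 5 mM MgCl2, 1 mM MnCl2, 1 mM DTT, 50 nM SEB plus test compounds; reaction 30 min at room temperature. EDTA-containing detection with TK antibody-cryptate/streptavidin-XL665 for 60 min; HTRF 665/620 ratio read. IC50 from 4-parameter logistic fit with variable slope.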

[3] = target: T3, recombinant human MERTK expressed in live cells (HEK 293, MERTK-Nanoluc fusion vector) (Homo sapiens, UniProt Q12866); experiment: Assay 2 MERTK cellular target engagement (NanoBRET TE) assay; format: cell-based; details: HEK 293 cells, tracer K9, 2 h at 37° C.; read-out: Assay 2 Cell TE MER IC50
T3 construct: host or cells: HEK 293
T3 sequence (Q12866 21-999): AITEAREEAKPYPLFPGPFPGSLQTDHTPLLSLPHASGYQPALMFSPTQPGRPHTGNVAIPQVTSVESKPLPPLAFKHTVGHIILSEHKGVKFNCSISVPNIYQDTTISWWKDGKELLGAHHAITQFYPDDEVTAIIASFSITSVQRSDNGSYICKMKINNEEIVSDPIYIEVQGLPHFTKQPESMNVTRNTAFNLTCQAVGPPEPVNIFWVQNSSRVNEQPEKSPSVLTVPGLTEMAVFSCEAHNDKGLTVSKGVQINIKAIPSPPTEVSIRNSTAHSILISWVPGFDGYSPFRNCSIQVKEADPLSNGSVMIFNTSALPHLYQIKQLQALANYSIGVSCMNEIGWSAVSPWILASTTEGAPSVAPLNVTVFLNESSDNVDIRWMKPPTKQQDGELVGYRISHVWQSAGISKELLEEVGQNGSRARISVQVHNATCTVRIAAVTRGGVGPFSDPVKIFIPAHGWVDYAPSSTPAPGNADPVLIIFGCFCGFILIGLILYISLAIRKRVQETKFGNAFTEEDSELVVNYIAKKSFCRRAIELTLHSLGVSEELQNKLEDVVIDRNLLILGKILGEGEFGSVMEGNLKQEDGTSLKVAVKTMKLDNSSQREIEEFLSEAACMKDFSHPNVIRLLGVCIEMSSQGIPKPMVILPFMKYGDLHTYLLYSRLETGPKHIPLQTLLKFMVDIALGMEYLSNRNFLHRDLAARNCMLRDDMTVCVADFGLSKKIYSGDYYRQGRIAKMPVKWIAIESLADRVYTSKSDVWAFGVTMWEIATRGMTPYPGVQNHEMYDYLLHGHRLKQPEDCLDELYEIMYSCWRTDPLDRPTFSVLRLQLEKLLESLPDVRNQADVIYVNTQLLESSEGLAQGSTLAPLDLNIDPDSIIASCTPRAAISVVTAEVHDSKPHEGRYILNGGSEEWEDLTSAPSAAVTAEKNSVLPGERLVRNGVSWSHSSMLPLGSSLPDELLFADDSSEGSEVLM

[4] = target: T4, recombinant human AXL expressed in live cells (HEK, AXL-Nanoluc fusion vector) (Homo sapiens, UniProt P30530); experiment: Assay 3 AXL cellular target engagement (NanoBRET TE) assay; format: cell-based
T4 construct: host or cells: HEK
T4 sequence (P30530 26-894): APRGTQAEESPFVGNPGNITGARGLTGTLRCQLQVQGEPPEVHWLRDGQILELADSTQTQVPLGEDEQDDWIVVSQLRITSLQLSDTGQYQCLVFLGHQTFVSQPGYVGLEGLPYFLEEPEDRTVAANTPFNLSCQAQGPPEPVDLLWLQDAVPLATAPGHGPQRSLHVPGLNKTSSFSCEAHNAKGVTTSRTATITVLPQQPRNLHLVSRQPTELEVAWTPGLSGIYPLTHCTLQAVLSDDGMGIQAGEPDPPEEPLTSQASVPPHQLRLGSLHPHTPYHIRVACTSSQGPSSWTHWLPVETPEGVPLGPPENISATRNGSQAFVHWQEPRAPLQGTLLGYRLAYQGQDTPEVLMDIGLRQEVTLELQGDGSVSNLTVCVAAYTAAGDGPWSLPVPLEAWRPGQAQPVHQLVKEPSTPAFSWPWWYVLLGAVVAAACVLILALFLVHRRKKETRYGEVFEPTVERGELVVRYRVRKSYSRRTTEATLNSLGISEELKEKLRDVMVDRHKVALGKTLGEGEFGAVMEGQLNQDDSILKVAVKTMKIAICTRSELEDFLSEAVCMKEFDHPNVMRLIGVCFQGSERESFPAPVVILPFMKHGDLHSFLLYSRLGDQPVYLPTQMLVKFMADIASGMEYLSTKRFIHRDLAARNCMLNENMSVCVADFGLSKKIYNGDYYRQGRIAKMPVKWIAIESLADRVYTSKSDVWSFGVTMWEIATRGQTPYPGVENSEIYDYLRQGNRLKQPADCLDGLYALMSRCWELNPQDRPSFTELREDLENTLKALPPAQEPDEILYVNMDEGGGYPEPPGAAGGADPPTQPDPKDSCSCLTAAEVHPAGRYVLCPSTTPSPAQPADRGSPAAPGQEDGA
Protocol: Assay 3—AXL Cellular Target Engagement (TE) Assay
Compound affinities for recombinant human AXL expressed in live cells were assessed via the Promega NanoBRET TE assay technology. Human Embryonic Kidney (HEK) cells were transiently transfected with the AXL-Nanoluc fusion vector (Promega Cat NV1071) using Fugene HD reagent (Promega E2311). […] Incubations were conducted for 2 h at 37° C., after which 20 μl NanoGlo substrate/inhibitor mix (Promega N2161) was added to each well for 2-3 min. The plate was then read on a BMG Pherastar FSX using a NanoBRET filter to record donor emission at 450 nm and acceptor fluorophore emission at 610 nm. From this the BRET ratio (acceptor 610 nm/donor 450 nm) for each data point was calculated.

[5] = HEK cells, tracer K5, 2 h at 37° C., read-out: Assay 3 Cell TE Axl IC50

| IC50 [1] | IC50 [2] | IC50 [3] | IC50 [4] | IC50 [4, 5] | Structure (SMILES) |
| --- | --- | --- | --- | --- | --- |
| 31 nM | 60 nM | 95.6 nM | 83.3 nM | – | CN1CCC(NC(=O)c2cc3c(Oc4ccc(NC(=O)c5cccn(-c6ccccc6)c5=O)nc4)ccnc3cn2)CC1 [Example 28.2, N-(1-methyl-4-piperidyl)-4-[[6-[(2-oxo-1-phenyl-pyridine-3-carbonyl)amino]-3-pyridyl]oxy]-1,7-naphthyridine-6-carboxamide] |
| 75 nM | – | 1750 nM | 2.9 nM | – | CC(C)n1cc(C(=O)Nc2ccc(Nc3ccnc4cnc(N5CCNCC5)cc34)cc2)c(=O)n(-c2ccc(F)cc2)c1=O [Example 1.1, 3-(4-fluorophenyl)-1-isopropyl-2,4-dioxo-N-[4-[(6-piperazin-1-yl-1,7-naphthyridin-4-yl)amino]phenyl]pyrimidine-5-carboxamide] |
| 37 nM | – | 131 nM | 133 nM | – | CN1CCC(n2cc(-c3cc4c(Nc5ccc(NC(=O)c6cccn(-c7ccccc7)c6=O)cc5)ccnc4cn3)cn2)CC1 [Example 4.1, N-[4-[[6-[1-(1-methyl-4-piperidyl)pyrazol-4-yl]-1,7-naphthyridin-4-yl]amino]phenyl]-2-oxo-1-phenyl-pyridine-3-carboxamide] |
| 182 nM | – | 260 nM | 24.8 nM | – | CC(C)n1cc(C(=O)Nc2ccc(Nc3ccnc4cnc(N5CCNCC5)cc34)cc2)c(=O)n(-c2ccccc2)c1=O [Example 1.3, 1-isopropyl-2,4-dioxo-3-phenyl-N-[4-[(6-piperazin-1-yl-1,7-naphthyridin-4-yl)amino]phenyl]pyrimidine-5-carboxamide] |
| 20 nM | – | 28 nM | 114 nM | – | O=C(Nc1ccc(Nc2ccnc3cnc(N4CCNCC4)cc23)cc1)c1cccn(-c2ccc(F)cc2)c1=O [Example 1.2, 1-(4-fluorophenyl)-2-oxo-N-[4-[(6-piperazin-1-yl-1,7-naphthyridin-4-yl)amino]phenyl]pyridine-3-carboxamide] |
| 54 nM | – | 23.7 nM | 189 nM | – | O=C(Nc1ccc(Nc2ccnc3cnc(N4CCCNCC4)cc23)cc1)c1cccn(-c2ccccc2)c1=O [Example 2.2, N-[4-[[6-(1,4-diazepan-1-yl)-1,7-naphthyridin-4-yl]amino]phenyl]-2-oxo-1-phenyl-pyridine-3-carboxamide] |

Second part, the compound before the results:

| Structure (SMILES) | IC50 [1] | IC50 [2] | IC50 [3] | IC50 [4] | IC50 [4, 5] |
| --- | --- | --- | --- | --- | --- |
| O=C(Nc1ccc(Oc2ccnc3cnc(N4CCNCC4)cc23)cn1)c1cccn(-c2ccccc2)c1=O [Example 32, 2-oxo-1-phenyl-N-[5-[(6-piperazin-1-yl-1,7-naphthyridin-4-yl)oxy]-2-pyridyl]pyridine-3-carboxamide] | 17 nM | 310 nM | 80.8 nM | – | 127 nM |
| O=C(Nc1ccc(Oc2ccnc3cnc(N4CCNCC4)cc23)cc1)c1cccn(-c2ccccc2)c1=O [Example 12, 2-Oxo-1-phenyl-N-[4-[(6-piperazin-1-yl-1,7-naphthyridin-4-yl)oxy]phenyl]pyridine-3-carboxamide] | 11 nM | 54 nM | 80.4 nM | – | 114 nM |
| O=C(N[C@H]1CC[C@H](O)CC1)c1cc2c(Nc3ccc(NC(=O)c4cccn(-c5ccccc5)c4=O)cc3)ccnc2cn1 [Example 5, N-(4-hydroxycyclohexyl)-4-[4-[(2-oxo-1-phenyl-pyridine-3-carbonyl)amino]anilino]-1,7-naphthyridine-6-carboxamide] | 60 nM | – | 96.1 nM | 97.5 nM | – |
| O=C(Nc1ccc(Nc2ccnc3cnc(N4CCC(O)CC4)cc23)cc1)c1cccn(-c2ccccc2)c1=O [Example 2, N-[4-[[6-(4-hydroxy-1-piperidyl)-1,7-naphthyridin-4-yl]amino]phenyl]-2-oxo-1-phenyl-pyridine-3-carboxamide] | 59 nM | – | 46.6 nM | 173 nM | – |
| O=C(Nc1ccc(Nc2ccnc3cnc(N4CCNCC4)cc23)cc1)c1cccn(-c2ccccc2)c1=O [Example 1, 2-oxo-1-phenyl-N-[4-[(6-piperazin-1-yl-1,7-naphthyridin-4-yl)amino]phenyl]pyridine-3-carboxamide] | 68 nM | – | 175 nM | 145 nM | – |
| O=C(Nc1ccc(Oc2ccnc3cnc(N4CCNCC4)cc23)c(F)c1)c1cccn(-c2ccccc2)c1=O [Example 31, N-[3-fluoro-4-[(6-piperazin-1-yl-1,7-naphthyridin-4-yl)oxy]phenyl]-2-oxo-1-phenyl-pyridine-3-carboxamide] | 6 nM | 12 nM | 26.1 nM | 34.9 nM | – |
